These results are taken from patent US11542264B2, “Heteroaromatic NMDA receptor modulators and uses thereof” (Cadent Therapeutics, Inc., priority 2018, dated 2023).

Values after ≈ are worked out from the molar mass of the structure shown. Where two headings read alike, the source gives them in different places.

Data set [1] can be described thus: Rat IV pharmacokinetic study, in vivo clearance. The source says:
Rat microsomal stability data is provided as well. These improvements in in vitro and in vivo clearance are advantageous because reduced clearance, in one aspect, is anticipated to provide enhanced in vivo performance in humans.

The target in data set [2] is T1, hNR2B (Homo sapiens, UniProt Q05586+Q13224).
T1 construct: expressed in transfected cells
Briefly: Oocyte 2EVC NR2B PAM activity. The class given is cell-based. The note with it: read-out: Oocyte 2EVC NR2B PAM: EC50. The source says: EC50 refers to the concentration of a compound that gives half-maximal response.

The nature of data set [3]: Rat liver microsome stability. It counts as in vitro ADME. The settings on record: rat, liver microsomes; Table 4; read-out: Rat liver microsome (RLM) stability t1/2. The source says: The liver is the most important site of drug metabolism in the body. Approximately 60% of marketed compounds are cleared by hepatic CYP-mediated metabolism (McGinnity, D. F.; Soars, M. G.; Urbanowicz, R. A. and Riley, R. J.; Drug Metab. Disp. 32, 1247, (2004)). Liver microsomes are subcellular fractions which contain membrane bound drug metabolizing enzymes. Microsomes can be used to determine the in vitro intrinsic clearance of a compound. The use of species-specific microsomes can be used to enable an understanding of interspecies differences.
In general terms: Microsomes from liver hold many membrane-bound enzymes, among them those of drug oxidation.

The subject of data set [4] is NMDA receptor. The note with it: cited from earlier work; for % response recovered with Ro 25-6981 and DCKA: Table 49 of WO 2017/100591; for Maximum measured potentiation (%) with Ro 25-6981 and DCKA: comparator examples from WO 2017/100591.
Data set [5] is described as follows: Aqueous solubility, shake-flask method. The note with it: phosphate buffer saline, pH 7.4, shake-flask, HPLC-UV; for solubility: pH 7.4, aqueous buffer, kinetic from dmso stock. It counts as physicochemical. Here is the method: The aqueous solubility of the test compound was determined in phosphate buffer saline, pH 7.4, measured by shake-flask method. In this assay, DMSO stock solution of test compound was added to buffer followed by equilibration (shaking), filtration, and determination of soluble amount by HPLC-UV. […] Other imidazopyrazinone comparators from WO 2017/100591 are provided for reference. All comparator analogs are active and potency data is available in WO 2017/100591. This improvement is advantageous because improved aqueous solubility, in one aspect, is anticipated to provide enhanced in vivo performance in humans.

Data set [6] relates to impairment of MMN by MK-801. Nature of the data set: Mismatch negativity (MMN) efficacy model. The note with it: rat, MK-801 0.2 mg/kg, IP.
Description: Rats implanted with frontal EEG electrodes were presented with different audio stimuli comprising an auditory oddball “flip-flop” protocol. Briefly, 1,000 standard tones of 6.0 kHz were delivered at 90% probability, and 100 deviant tones of 8.0 kHz were delivered at 10% probability in pseudo-random order (the flip sequence), and then this sequence was then repeated with the 8 kHz tone as the standard, and the 6 kHz tone as the deviant (the flop sequence). MMN is calculated as a difference potential obtained by subtracting the averaged 8 kHz standard tone response (flop) from the averaged 8 kHz deviance tone response (flip) at each 1 ms time point over the EEG recording epochs from 50 ms prior to 150 ms after the onset of these 50 ms auditory tones.
Test sessions were comprised of three 20-minute flip-flop blocks.
In data set [7] the test system is PCP-induced cognitive impairment. Briefly: Rat Novel Object Recognition (NOR) test, PCP-induced cognitive impairment. The settings on record: PCP 5 mg/kg intraperitoneal twice daily for 7 days, 14-day washout.
Description: Rats were treated twice daily for 7 days with either saline vehicle (control group) or PCP (5 mg/kg, intraperitoneal). Following a 14-day washout period of no treatment, rats were tested in the NOR paradigm. Briefly, testing involves two sessions (T1 and T2), each lasting 3 minutes, 1 hour apart. […] In T1, rats are placed in a test arena with two identical objects and allowed to freely explore while their time spent exploring each object is recorded. In T2, rats are returned to the test arena where one of the objects remains the same and the other has been replaced with a novel object. The time spent exploring the novel object versus the time spent exploring the familiar object are recorded and compared to T1 object exploration times.

T1 sequence (Q13224 27-1484, other chains not shown): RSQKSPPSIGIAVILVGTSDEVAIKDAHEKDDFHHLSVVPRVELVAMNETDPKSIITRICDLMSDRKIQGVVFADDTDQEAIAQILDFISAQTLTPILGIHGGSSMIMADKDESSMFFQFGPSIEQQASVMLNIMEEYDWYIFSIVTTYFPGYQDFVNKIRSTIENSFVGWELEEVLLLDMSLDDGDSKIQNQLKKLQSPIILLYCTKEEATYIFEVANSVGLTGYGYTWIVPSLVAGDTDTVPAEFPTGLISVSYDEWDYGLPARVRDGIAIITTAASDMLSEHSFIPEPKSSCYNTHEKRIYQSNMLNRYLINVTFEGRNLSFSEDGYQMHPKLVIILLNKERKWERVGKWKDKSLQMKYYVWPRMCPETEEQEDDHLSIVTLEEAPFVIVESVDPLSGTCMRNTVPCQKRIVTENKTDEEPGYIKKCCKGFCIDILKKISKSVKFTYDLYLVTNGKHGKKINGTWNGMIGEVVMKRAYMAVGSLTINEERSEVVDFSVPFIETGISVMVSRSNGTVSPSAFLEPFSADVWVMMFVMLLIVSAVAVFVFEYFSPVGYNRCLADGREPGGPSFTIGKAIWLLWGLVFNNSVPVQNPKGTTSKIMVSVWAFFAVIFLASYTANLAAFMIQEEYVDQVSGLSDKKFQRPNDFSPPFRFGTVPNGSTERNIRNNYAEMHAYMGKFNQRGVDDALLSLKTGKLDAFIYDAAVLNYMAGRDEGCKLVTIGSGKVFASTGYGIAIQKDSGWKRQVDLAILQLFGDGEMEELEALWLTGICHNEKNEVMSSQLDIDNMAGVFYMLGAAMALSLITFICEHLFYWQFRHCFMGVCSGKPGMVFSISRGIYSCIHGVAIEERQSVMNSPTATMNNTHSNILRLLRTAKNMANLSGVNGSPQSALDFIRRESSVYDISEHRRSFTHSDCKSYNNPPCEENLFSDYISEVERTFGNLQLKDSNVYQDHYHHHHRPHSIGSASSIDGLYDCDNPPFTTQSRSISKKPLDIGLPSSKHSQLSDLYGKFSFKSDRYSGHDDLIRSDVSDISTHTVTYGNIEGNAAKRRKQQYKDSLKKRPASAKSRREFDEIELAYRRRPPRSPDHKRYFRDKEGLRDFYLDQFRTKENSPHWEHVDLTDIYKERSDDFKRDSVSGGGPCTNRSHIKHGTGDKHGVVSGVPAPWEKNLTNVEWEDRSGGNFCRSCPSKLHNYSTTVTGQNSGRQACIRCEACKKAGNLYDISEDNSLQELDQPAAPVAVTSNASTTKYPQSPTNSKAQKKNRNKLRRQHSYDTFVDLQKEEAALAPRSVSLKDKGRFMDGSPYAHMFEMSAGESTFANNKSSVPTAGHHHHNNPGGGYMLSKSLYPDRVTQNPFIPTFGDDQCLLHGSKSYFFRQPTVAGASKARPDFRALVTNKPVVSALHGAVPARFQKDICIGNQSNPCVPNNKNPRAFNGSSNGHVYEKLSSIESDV

`O=C(Cn1ccc2scc(-c3ccc(F)c(Cl)c3)c2c1=O)N1CCCC1` [Example 3]: the clearance in data set [1] came to 43.6 mL/min/kg. Further, the EC50 in data set [2] (Table 4) was 7010 nM. The half-life in data set [3] was 47.2 min.
Taken in the same sequence, the figures for `O=C(Cn1ccc2scc(-c3ccc(F)c(Cl)c3)c2c1=O)N1CCC(F)C1` (centres unmarked) [Example 9] were 35.5 mL/min/kg, 3530 nM and 37.8 min.
Taken in the same sequence, the figures for `O=C(Cn1ccc2scc(-c3cnc(Cl)c(Cl)c3)c2c1=O)N1CCC(F)C1` (centres unmarked) [Example 12] were 19.4 mL/min/kg, 5630 nM and 200 min.
Taken in the same sequence, the figures for `CC1(F)CN(C(=O)Cn2ccc3scc(-c4ccc(F)c(Cl)c4)c3c2=O)C1` [Example 39] were 27.8 mL/min/kg, 726 nM and 42 min.
`CC1(F)CN(C(=O)Cn2ccc3scc(-c4ccc(Cl)c(Cl)c4)c3c2=O)C1` [Example 42] had a clearance in data set [1] of 26.9 mL/min/kg. In addition, the EC50 in data set [2] (Table 4) was 463 nM. Besides, the half-life in data set [3] worked out at 36 min.
The corresponding values for `CC1(F)CN(C(=O)Cn2ccc3scc(-c4ccc(F)c(C(F)(F)F)c4)c3c2=O)C1` [Example 43] are 29.4 mL/min/kg, 441 nM and 60.8 min.
In the case of `O=C(Cn1cnc2[nH]cc(-c3ccc(F)c(C(F)(F)F)c3)c2c1=O)N1CCC(F)C1` (centres unmarked) [Example 174], the EC50 in data set [2] (Table 1) was 1500 nM. Further, in data set [4], the “% response recovered with Ro 25-6981 and DCKA” value (“% response recovered” below) was 91%; the “Maximum measured potentiation (%) with Ro 25-6981 and DCKA” value is 124%.
As for `O=C(Cn1cnc2[nH]cc(-c3ccc(Cl)c(C(F)(F)F)c3)c2c1=O)N1C[C@@H](F)[C@@H](F)C1` [Example 181], the EC50 in data set [2] (Table 1) was found to be 1190 nM. Besides, in data set [4], the “% response recovered” value was 69%; the “Maximum measured potentiation (%) with Ro 25-6981 and DCKA” value is on record as 129%.
Compound `CC1(F)CN(C(=O)Cn2ccc3c(c(-c4ccc(F)c(Cl)c4)cn3C3CC3)c2=O)C1` [Example 285] registered a clearance in data set [1] of 22.2 mL/min/kg. In data set [2] (Table 4), the EC50 turned out to be 200 nM. In addition, the half-life in data set [3] was found to be 37.8 min. For the same compound, in data set [4] (data of WO 2017/100591), the “potency in the Ro 25-6981/DCKA assay (in words)” value is listed as “excellent potency”.
`CC1(F)CN(C(=O)Cn2ccn3ccc(-c4ccc(Cl)c(Cl)c4)c3c2=O)C1` [Example 396] yielded a clearance in data set [1] of 23.4 mL/min/kg. The EC50 in data set [2] (Table 4) was 589 nM. In data set [3], the half-life was 75 min.
Taken in the same sequence, the figures for `CC1(F)CN(C(=O)Cn2ccn3ccc(-c4ccc(F)c(Cl)c4)c3c2=O)C1` [Example 397] were 46.2 mL/min/kg, 1210 nM and 37.3 min.
`Cc1nc(-c2ccc(F)c(Cl)c2)c2c(=O)n(CC(=O)N3CC(C)(F)C3)ccn12` [Example 426] gave an Aqueous solubility in data set [5] of 20 µM.
On to `Cc1nc(-c2ccc(F)c(C(F)(F)F)c2)c2c(=O)n(CC(=O)N3CCC(F)C3)ccn12` (centres unmarked) [Example 427], for which the solubility in data set [5] came to 7 µM (≈ 3.08 µg/mL).
Compound `Cc1nc(-c2ccc(Cl)c(Cl)c2)c2c(=O)n(CC(=O)N3CCC(F)C3)ccn12` (centres unmarked) [Example 429] displayed a solubility in data set [5] of 26 µM (≈ 11 µg/mL).
As for `Cc1nc(-c2ccc(F)c(Cl)c2)c2c(=O)n(CC(=O)N3CC(C)(F)C3)ccn12` [Example 430], the Aqueous solubility in data set [5] was 43 µM. This counts as double-digit micromolar.
In the case of `O=C(Cn1ccn2c(C3CC3)nc(-c3ccc(Cl)c(Cl)c3)c2c1=O)N1CCC(F)C1` (centres unmarked) [Example 433], the solubility in data set [5] came out at 30 µM (≈ 13.5 µg/mL). In other words, the double-digit micromolar range.
In data set [5], `CC1(F)CN(C(=O)Cn2ccn3c(C4CC4)nc(-c4ccc(Cl)c(Cl)c4)c3c2=O)C1` [Example 435] registered a solubility of 14 µM (≈ 6.29 µg/mL).
In turn, `CC1(F)CN(C(=O)Cn2ccn3c(C4CC4)nc(-c4ccc(F)c(Cl)c4)c3c2=O)C1` [Example 436] returned a solubility in data set [5] of 3 µM (≈ 1.3 µg/mL). Also, the “% response recovered” value in data set [4] is reported as 100%.
Consider `CC1(F)CN(C(=O)Cn2ccn3c(C4CC4)nc(-c4cnc(Cl)c(Cl)c4)c3c2=O)C1` [Example 437], for which the concentration in solution in data set [5] (solubility) was 7 µM (≈ 3.15 µg/mL). This lies in the single-digit micromolar range.
For the compound `CC1(F)CN(C(=O)Cn2ccn3c(C4CC4)nc(-c4ccc(F)c(C(F)(F)F)c4)c3c2=O)C1` [Example 438], the solubility in data set [5] is 2 µM (≈ 0.933 µg/mL). This solubility is about 3.5-fold lower than that of the compound before.
Compound `Cc1cc(-c2nc(C3CC3)n3ccn(CC(=O)N4CC(C)(F)C4)c(=O)c23)ccc1Cl` [Example 443] registered a solubility in data set [5] of 91 µM (≈ 39 µg/mL).
Still for that read-out and setting: the result for `CC1(F)CN(C(=O)Cn2ccn3cnc(-c4ccc(F)c(Cl)c4)c3c2=O)C1` [Example 445] reads 14 µM (≈ 5.5 µg/mL); that for `CC1(F)CN(C(=O)Cn2ccn3cnc(-c4ccc(F)c(C(F)(F)F)c4)c3c2=O)C1` [Example 446], 9 µM (≈ 3.84 µg/mL); that for `CC1(F)CN(C(=O)Cn2ccn3cnc(-c4ccc(Cl)c(Cl)c4)c3c2=O)C1` [Example 447], 69 µM (≈ 28.2 µg/mL).
On to `C[C@]12N[C@H](Cc3ccccc31)c1ccccc12` [MK-801], for which the “MMN after vehicle plus MK-801 compared to vehicle plus saline” value in data set [6] is “significantly impaired MMN”.
As for `c1ccc(C2(N3CCCCC3)CCCCC2)cc1` [PCP, phencyclidine], in data set [7], the “time spent exploring the novel object compared to saline control” value is recorded as “significant reduction in time spent exploring the novel object”.

The term clearance denotes the volume of plasma or blood freed of the substance per unit of time. High values mean efficient removal, low ones inefficient removal. One may read the EC50 as the concentration needed to bring the measured effect to its halfway point. The term Aqueous solubility denotes the dissolved amount per volume that the medium holds. The term solubility denotes the concentration that dissolves in the medium under given conditions. Read a high solubility as a readily soluble substance.
